Measured values as given in PubChem BioAssay (NCI).
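Interpolation was linear, between the two tested concentrations surrounding the appropriate level; five concentrations were tested over 48 hours in 96-well plates. TGI: total growth inhibition.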 *1 amine or outer side, *2 acyl side, *3 side chain or, on linkers, in order; H or OH if unused. Where a SMILES comes first, the peptide text is derived from it. Bridges are numbered along the chain shown (N, C = ends). Roman numbers before positions name the chains, in order. [ ]: non-standard residue; d: D form. Actinocin(9to1) = Cc1c2oc3c(C)ccc(C(=O)[*:1])c3nc-2c(C(=O)[*:2])c(N)c1=O; Hyp = O=C(O)[CH]1C[CH](O)CN1; NMeV = CN[CH](C(=O)O)C(C)C; Sar = CNCC(=O)O

What was measured:
Experiment in all cases: NCI-60 cell line screen, 48 h
[1] = test system: CAKI-1 renal
[2] = test system: HOP-62 NSCLC
[3] = test system: K-562 leukemia
[4] = test system: MALME-3M melanoma
[5] = test system: NCI-H522 lung
[6] = test system: OVCAR-5 ovarian
[7] = test system: SF-268 CNS
[8] = test system: SR leukemia
[9] = test system: T-47D breast
[10] = test system: U251 CNS

Row | SMILES | TGI [1] | TGI [2] | TGI [3] | TGI [4] | TGI [5] | TGI [6] | TGI [7] | TGI [8] | TGI [9] | TGI [10]
1 | O=C(O)/C(=C\c1ccc(O)cc1)c1cccc2ccccc12 | > 100 µM | > 100 µM | > 100 µM | > 100 µM | > 100 µM | > 100 µM | > 100 µM | > 100 µM | > 100 µM | > 100 µM
2 | CCSc1nc(=S)n(-c2ccccc2)c(C)c1C(C)=O | > 100 µM | > 100 µM | > 100 µM | > 100 µM | > 100 µM | > 100 µM | > 100 µM | > 100 µM | > 100 µM | > 100 µM
3 | Cc1c(C)c(C)c(-n2c(=O)n(C)c(=O)n2-c2cc(C(C)(C)C)cc(C(C)(C)C)c2O)c(C)c1C | 28.5 µM | 28 µM | 27.2 µM | 24.9 µM | 14.6 µM | 26.9 µM | 27.7 µM | > 46.9 µM | 18.6 µM | 19.6 µM
4 | O[C@@H]1CCC[C@@H]2NC[C@@H](c3ccc4c(c3)OCO4)[C@H]12 | > 100 µM | > 100 µM | > 100 µM | > 100 µM | > 100 µM | > 100 µM | > 100 µM | > 100 µM | > 100 µM | > 100 µM
5 | COc1cccc2cc(C(=O)Nc3ccccc3)c(=N)oc12 | > 100 µM | > 100 µM | > 100 µM | > 100 µM | > 100 µM | > 100 µM | > 100 µM | > 100 µM | > 31.4 µM | > 100 µM
6 | Nn1c(=O)[nH]c2ncn(Cc3ccccc3)c2c1=O | > 100 µM | > 100 µM | > 100 µM | > 100 µM | > 100 µM | > 100 µM | > 100 µM | > 100 µM | > 100 µM | > 100 µM
7 | O=C1CC(=O)NC(=NN2C(=O)CSC2C(=O)c2ccco2)N1 (stereo not given) | > 100 µM | > 100 µM | > 100 µM | > 100 µM | > 100 µM | > 100 µM | > 100 µM | > 100 µM | > 100 µM | > 100 µM
8 | NCCCNOCCCN | > 100 µM | > 100 µM | > 100 µM | > 100 µM | > 100 µM | > 100 µM | > 100 µM | > 100 µM | > 100 µM | > 100 µM
9 | N/C(=N\Nc1ccc(Cl)cc1)c1cnccn1 | > 100 µM | > 100 µM | > 100 µM | > 100 µM | > 100 µM | > 100 µM | > 100 µM | > 100 µM | > 100 µM | > 100 µM
10 | O=[N+]([O-])c1cc(F)ccc1S(=O)(=O)c1ccccc1 | > 10 µM | > 10 µM | > 10 µM | > 10 µM | 5.34 µM | > 10 µM | > 10 µM | > 10 µM | > 10 µM | > 10 µM
11 | CC(C)(C)NC(=O)/C(=C\Sc1ccccc1)c1ccccc1 | > 100 µM | > 100 µM | > 100 µM | > 100 µM | > 52.1 µM | > 100 µM | > 87.8 µM | > 100 µM | > 100 µM | > 100 µM
12 | Cc1c2oc3c(C)ccc(C(=O)NC4C(=O)NC(C(C)C)C(=O)N5CC(O)CC5C(=O)N(C)CC(=O)N(C)C(C(C)C)C(=O)OC4C)c3nc-2c(C(=O)NC2C(=O)NC(C(C)C)C(=O)N3CC(O)CC3C(=O)N(C)CC(=O)N(C)C(C(C)C)C(=O)OC2C)c(N)c1=O (stereo not given) (I: TV[Hyp][Sar][NMeV] / II: TV[Hyp][Sar][NMeV]; ester I:1-I:C, II:1-II:C; linker I:N-II:N via Actinocin(9to1); configuration not given here) | > 1 µM | > 1 µM | > 1 µM | > 1 µM | > 1 µM | > 1 µM | > 1 µM | > 1 µM | > 1 µM | > 1 µM
13 | CO/N=C(\C([O-])=N\[n+]1cnn(CC(=O)OC(C)(C)C)c1)c1csc(NC(c2ccccc2)(c2ccccc2)c2ccccc2)n1 | > 10 µM | > 10 µM | > 10 µM | > 10 µM | > 10 µM | > 10 µM | > 10 µM | > 10 µM | > 10 µM | > 10 µM
14 | O=c1c2cnccc2cc2c3ccccc3ccn12 | > 100 µM | > 100 µM | > 100 µM | > 100 µM | > 100 µM | > 100 µM | > 100 µM | > 100 µM | > 100 µM | > 100 µM
